One assay has as its system HCT116 MTAP null cells. Put plainly: HCT116 MTAP null cell line proliferation / cell viability (CellTiter-Glo, 6 days). It is filed as cell-based. As to conditions: 144 h; HCT116 MTAP null cells, 6 days treatment, CellTiter-Glo cell viability; read-out: HCT-116 MTAP null IC50. On the procedure: (§1) HCT116 Proliferation Activity
(§2) To assess selective anti-proliferative activity of compounds of the invention in cells that have loss expression of MTAP, an HCT-116 isogenic cell line pair was utilized where one cell line was engineered to genetically knockout both MTAP alleles. Cell viability was then assessed in both the parent HCT-116 cell line and the MTAP null cell line after 6 days of treatment with compounds of the present invention. Selective anti-proliferative activity in the MTAP null cell line indicates MTA-cooperative inhibition of PRMT5 and ability to inhibit growth of cancer cells that have loss of MTAP.
(§3) HCT116 MTAP null and WT cells were seeded in 96-well tissue culture plates in RPMI 1640 media+10% fetal bovine serum. Plates were incubated overnight at 37° C. and 5% CO2. Cells were then treated with an 8- or 9-point serial dilution of compound, using a top concentration of 1, or 10 μM, 1:3 serial dilution steps and, a DMSO-only control. Cells were incubated in the presence of drug for 6 days. Effects on cell viability were measured with the CellTiter-Glo® Luminescent Cell Viability Assay (Promega) per manufacturer's recommendation. Assay plates were read on an EnVision™ Multilabel Reader using the Ultra-Sensitive luminescence module. IC50 values were calculated with GraphPad Prism v 5.01 using symmetrical sigmoidal dose-response least squares fit with Hill slope fixed to −1 and top constrain to 100% or GeneData Screener using a 4-parameter logistic model to fit dose response curves.
(§4) Alternatively, compounds could be assayed with a 384 well plate format:
(§5) Compounds were pre-spotted into 384 well plates with a 22-point serial dilution of compound, using a top concentration of 10 or 50 μM, 1:2 serial dilution steps and, a DMSO-only control. HCT116 MTAP null and WT cells were then seeded as above and after 6 days effects on cell viability were measured with the CellTiter-Glo® Luminescent Cell Viability Assay (Promega). Assay plates were read as above and IC50 values were calculated with GeneData Screener using a 4-parameter logistic model to fit dose response curves. The reported IC50 represents the value where the curve transits 50% of control.
(In ATP-based viability assays light output follows the ATP content of the culture.)

The test system of the next assay is HCT116 WT cells. Put plainly: HCT116 WT (parent) cell line proliferation / cell viability (CellTiter-Glo, 6 days). It is filed as cell-based. As to conditions: Homo sapiens, HCT-116, 144 h, 6 days treatment. On the procedure: as §1, §2, §3, §4, §5

For the compound `C[C@@H]1OCc2c(N)nc3ccc(C(=O)N(C)C4COc5cc(C(F)(F)F)ccc54)cc3c21` (mixture of isomers) [Example 205, (1R)-4-amino-N,1-dimethyl-N-((3S)-6-(trifluoromethyl)-2,3-dihydro-1-benzofuran-3-yl)-1,3-dihydrofuro[3,4-c]quinoline-8-carboxamide and (1S)-4-amino-N,1-dimethyl-N-((3S)-6-(trifluoromethyl)-2,3-dihydro-1-benzofuran-3-yl)-1,3-dihydrofuro[3,4-c]quinoline-8-carboxamide], the IC50 in the assay on HCT116 MTAP null cells worked out at 360 nM; with HCT116 WT cells it was 12300 nM.
For `CN=S(C)(=O)c1ccc2c(c1)OC[C@H]2N(C)C(=O)c1ccc2nc(N)c3c(c2c1)COC3` (mixture of isomers) [Example 447, 4-amino-N-((3S)-6-((R)-N,S-dimethylsulfonimidoyl)-2,3-dihydro-1-benzofuran-3-yl)-N-methyl-1,3-dihydrofuro[3,4-c]quinoline-8-carboxamide and 4-amino-N-((3S)-6-((S)-N,S-dimethylsulfonimidoyl)-2,3-dihydro-1-benzofuran-3-yl)-N-methyl-1,3-dihydrofuro[3,4-c]quinoline-8-carboxamide], in that order: 724 nM and 24900 nM.
For `CN=S(C)(=O)c1ccc2c(c1)OC[C@H]2N(C)C(=O)c1cc2c3c(c(N)nc2cn1)COC3` (mixture of isomers) [Example 456, 4-amino-N-((3S)-6-((R)-N,S-dimethylsulfonimidoyl)-2,3-dihydro-1-benzofuran-3-yl)-N-methyl-1,3-dihydrofuro[3,4-c][1,7]naphthyridine-8-carboxamide and 4-amino-N-((3S)-6-((S)-N,S-dimethylsulfonimidoyl)-2,3-dihydro-1-benzofuran-3-yl)-N-methyl-1,3-dihydrofuro[3,4-c][1,7]naphthyridine-8-carboxamide], in that order: 842 nM and 24100 nM.
In the case of `CN(C(=O)c1cc2c3c(c(N)nc2cc1F)COC3)[C@@H]1COc2cc(C(F)(F)F)cnc21` (mixture of isomers) [Example 461, 4-amino-7-fluoro-N-methyl-N-((3R)-6-(trifluoromethyl)-2,3-dihydrofuro[3,2-b]pyridin-3-yl)-1,3-dihydrofuro[3,4-c]quinoline-8-carboxamide and 4-amino-7-fluoro-N-methyl-N-((3S)-6-(trifluoromethyl)-2,3-dihydrofuro[3,2-b]pyridin-3-yl)-1,3-dihydrofuro[3,4-c]quinoline-8-carboxamide], the concentration for half-maximal inhibition (IC50) in the assay with HCT116 MTAP null cells came to 871 nM; in the assay with HCT116 WT cells, 38300 nM.
For `CN=S(C)(=O)c1ccc2c(c1)OC[C@H]2N(C)C(=O)c1cc2c3c(c(N)nc2cc1F)COC3` (mixture of isomers) [Example 463, 4-amino-N-((3S)-6-((R)-N,S-dimethylsulfonimidoyl)-2,3-dihydro-1-benzofuran-3-yl)-7-fluoro-N-methyl-1,3-dihydrofuro[3,4-c]quinoline-8-carboxamide and 4-amino-N-((3S)-6-((S)-N,S-dimethylsulfonimidoyl)-2,3-dihydro-1-benzofuran-3-yl)-7-fluoro-N-methyl-1,3-dihydrofuro[3,4-c]quinoline-8-carboxamide], in that order: 134 nM and 14700 nM.
Consider `CN(C(=O)c1ccc2nc(N)c3c(c2c1)COC3)C1COc2cc(C#N)ccc21` (racemic) [Example 201, 4-amino-N-((3R)-6-cyano-2,3-dihydro-1-benzofuran-3-yl)-N-methyl-1,3-dihydrofuro[3,4-c]quinoline-8-carboxamide and 4-amino-N-((3S)-6-cyano-2,3-dihydro-1-benzofuran-3-yl)-N-methyl-1,3-dihydrofuro[3,4-c]quinoline-8-carboxamide], for which the values for the IC50 with HCT116 MTAP null cells and in the assay with HCT116 WT cells were 149 nM and 5820 nM, respectively.
For `CN(C(=O)c1ccc2nc(N)c3c(c2c1)COC3)C1COc2cc(Br)ccc21` (racemic) [Example 203, 4-amino-N-((3R)-6-bromo-2,3-dihydro-1-benzofuran-3-yl)-N-methyl-1,3-dihydrofuro[3,4-c]quinoline-8-carboxamide and 4-amino-N-((3S)-6-bromo-2,3-dihydro-1-benzofuran-3-yl)-N-methyl-1,3-dihydrofuro[3,4-c]quinoline-8-carboxamide], in that order: 93 nM and 4590 nM.
Turning to `N#CCN(C(=O)c1cc2c3c(c(N)nc2cn1)COC3)C1COc2cc(C(F)(F)F)ccc21` (racemic) [Example 208, 4-amino-N-(cyanomethyl)-N-((3R)-6-(trifluoromethyl)-2,3-dihydro-1-benzofuran-3-yl)-1,3-dihydrofuro[3,4-c][1,7]-naphthyridine-8-carboxamide and 4-amino-N-(cyanomethyl)-N-((3S)-6-(trifluoromethyl)-2,3-dihydro-1-benzofuran-3-yl)-1,3-dihydrofuro[3,4-c][1,7]-naphthyridine-8-carboxamide], the IC50 with HCT116 MTAP null cells stood at 553 nM; in the assay with HCT116 WT cells, 16600 nM.
For `CN(C(=O)c1cc2c3c(c(N)nc2cc1F)COC3)C1c2ccc(C(F)(F)F)nc2CC1(C)C` (racemic) [Example 213, 4-amino-N-((5R)-6,6-dimethyl-2-(trifluoromethyl)-6,7-dihydro-5H-cyclopenta[b]-pyridin-5-yl)-7-fluoro-N-methyl-1,3-dihydrofuro[3,4-c]-quinoline-8-carboxamide and 4-amino-N-((5S)-6,6-dimethyl-2-(trifluoromethyl)-6,7-dihydro-5H-cyclopenta[b]-pyridin-5-yl)-7-fluoro-N-methyl-1,3-dihydrofuro[3,4-c]-quinoline-8-carboxamide], in that order: 365 nM and 12900 nM.
For `CN(C(=O)c1cc2c3c(c(N)nc2cc1F)COC3)C1c2ccc(C(F)(F)F)nc2CC1(F)F` (racemic) [Example 215, 4-amino-N-((5R)-6,6-difluoro-2-(trifluoromethyl)-6,7-dihydro-5H-cyclopenta[b]-pyridin-5-yl)-7-fluoro-N-methyl-1,3-dihydrofuro[3,4-c]-quinoline-8-carboxamide and 4-amino-N-((5S)-6,6-difluoro-2-(trifluoromethyl)-6,7-dihydro-5H-cyclopenta[b]pyridin-5-yl)-7-fluoro-N-methyl-1,3-dihydro-furo[3,4-c] quinoline-8-carboxamide], in that order: 427 nM and 15000 nM.
With `CN(C(=O)c1ccc2nc(N)c3cnn(C)c3c2c1)C1COc2ncc(C(F)(F)F)cc21` (racemic) [Example 226, 4-amino-N,1-dimethyl-N-((3R)-5-(trifluoromethyl)-2,3-dihydrofuro[2,3-b]pyridin-3-yl)-1H-pyrazolo[4,3-c]quinoline-8-carboxamide and 4-amino-N,1-dimethyl-N-((3S)-5-(trifluoromethyl)-2,3-dihydro-furo[2,3-b]pyridin-3-yl)-1H-pyrazolo[4,3-c]quinoline-8-carboxamide], the concentration for half-maximal inhibition (IC50) is 38 nM with HCT116 MTAP null cells and 2150 nM with HCT116 WT cells.
For `CCN(C(=O)c1ccc2nc(N)c3cnn(C)c3c2c1)C1COc2cc(C(F)(F)F)ccc21` (racemic) [Example 228, 4-amino-N-ethyl-1-methyl-N-((3R)-6-(trifluoromethyl)-2,3-dihydro-1-benzofuran-3-yl)-1H-pyrazolo[4,3-c]quinoline-8-carboxamide and 4-amino-N-ethyl-1-methyl-N-((3S)-6-(trifluoromethyl)-2,3-dihydro-1-benzofuran-3-yl)-1H-pyrazolo[4,3-c]quinoline-8-carboxamide], in that order: 7 nM and 683 nM.
For `CN(C(=O)c1ccc2nc(N)c3cnn(C)c3c2c1)C1c2ccc(C(F)(F)F)nc2CC1(F)F` (racemic) [Example 233, 4-amino-N-((5R)-6,6-difluoro-2-(trifluoromethyl)-6,7-dihydro-5H-cyclopenta[b]pyridin-5-yl)-N,1-dimethyl-1H-pyrazolo[4,3-c]quinoline-8-carboxamide and 4-amino-N-((5S)-6,6-difluoro-2-(trifluoromethyl)-6,7-dihydro-5H-cyclopenta[b]pyridin-5-yl)-N,1-dimethyl-1H-pyrazolo[4,3-c]quinoline-8-carboxamide], in that order: 723 nM and 19000 nM.
For `CN(C(=O)c1cc2c(cc1F)nc(N)c1cnn(C)c12)C1COc2nc(C(F)(F)F)ccc21` (racemic) [Example 242, 4-amino-7-fluoro-N,1-dimethyl-N-((3R)-6-(trifluoromethyl)-2,3-dihydrofuro[2,3-b]pyridin-3-yl)-1H-pyrazolo[4,3-c]-quinoline-8-carboxamide and 4-amino-7-fluoro-N,1-dimethyl-N-((3S)-6-(trifluoromethyl)-2,3-dihydrofuro[2,3-b]pyridin-3-yl)-1H-pyrazolo[4,3-c]-quinoline-8-carboxamide], in that order: 5 nM and 533 nM.

By IC50 is commonly meant the concentration that gives 50% inhibition.
